From the NIST ThermoML archive (doi:10.1021/je500936y)

What was measured:
[1] = refractive index (Na D-line) (dimensionless); xn = mol fraction of the nth substance listed; details: 100 kPa, Liquid, Standard Abbe refractometry
[2] = xn = mol fraction of the nth substance listed; details: 100 kPa, Liquid; for speed of sound: Frequency=3 MHz, Sing-around technique in a fixed-path interferometer; for mass density: Vibrating tube method

C=CN1CCCC1=O [N-vinylpyrrolidone] + CCCCn1cc[n+](C)c1.F[B-](F)(F)F
Details | mass density, [2] [kg/m3] | refractive index, [1] | speed of sound, [2] [m/s]
298.15 K, x2 = 0 | 1039.36 | 1.51119 | 1521.5
298.15 K, x2 = 0.1046 | 1069.96 | 1.4987 | 1537.3
298.15 K, x2 = 0.2035 | 1093.11 | 1.48698 | 1546
298.15 K, x2 = 0.3042 | 1113.53 | 1.47636 | 1552.7
298.15 K, x2 = 0.406 | 1131.03 | 1.46672 | 1557.8
298.15 K, x2 = 0.4945 | 1144.21 | 1.45868 | 1560.6
298.15 K, x2 = 0.607 | 1159.22 | 1.44913 | 1563.2
298.15 K, x2 = 0.697 | 1170.1 | 1.44241 | 1564.4
298.15 K, x2 = 0.7828 | 1179.78 | – | 1565.8
298.15 K, x2 = 0.9104 | 1191.59 | 1.42725 | 1566.1
303.15 K, x2 = 0 | 1034.95 | 1.50886 | 1502.5
303.15 K, x2 = 0.1046 | 1065.76 | 1.49659 | 1519.9
303.15 K, x2 = 0.2035 | 1089.01 | 1.48494 | 1529.6
303.15 K, x2 = 0.3042 | 1109.53 | 1.4745 | 1537.2
303.15 K, x2 = 0.406 | 1127.12 | 1.4648 | 1543
303.15 K, x2 = 0.4945 | 1140.37 | 1.45699 | 1546.2
303.15 K, x2 = 0.607 | 1155.45 | 1.44651 | 1549.5
303.15 K, x2 = 0.697 | 1166.39 | 1.44097 | 1551.4
303.15 K, x2 = 0.7828 | 1176.14 | 1.43197 | 1553
303.15 K, x2 = 0.9104 | 1187.99 | 1.42592 | 1553.9
308.15 K, x2 = 0 | 1030.55 | 1.5065 | 1483.7
308.15 K, x2 = 0.1046 | 1061.54 | 1.49444 | 1502.4
308.15 K, x2 = 0.2035 | 1084.92 | 1.48295 | 1513
308.15 K, x2 = 0.3042 | 1105.54 | 1.47251 | 1521.5
308.15 K, x2 = 0.406 | 1123.22 | 1.46308 | 1528
308.15 K, x2 = 0.4945 | 1136.54 | 1.45534 | 1532.1
308.15 K, x2 = 0.607 | 1151.7 | 1.44502 | 1535.8
308.15 K, x2 = 0.697 | 1162.69 | 1.43944 | 1538.3
308.15 K, x2 = 0.7828 | 1172.5 | 1.43065 | 1540.6
308.15 K, x2 = 0.9104 | 1184.4 | 1.42459 | 1542.1
313.15 K, x2 = 0 | 1026.14 | 1.50415 | 1465
313.15 K, x2 = 0.1046 | 1057.33 | 1.49224 | 1485
313.15 K, x2 = 0.2035 | 1080.83 | 1.48108 | 1496.5
313.15 K, x2 = 0.3042 | 1101.56 | 1.47065 | 1505.9
313.15 K, x2 = 0.406 | 1119.32 | 1.46137 | 1513.2
313.15 K, x2 = 0.4945 | 1132.74 | 1.45369 | 1517.9
313.15 K, x2 = 0.607 | 1147.96 | 1.44349 | 1522.3
313.15 K, x2 = 0.697 | 1159.01 | 1.43784 | 1525.3
313.15 K, x2 = 0.7828 | 1168.89 | 1.42937 | 1528.1
313.15 K, x2 = 0.9104 | 1180.83 | 1.42327 | 1530.1
318.15 K, x2 = 0 | 1021.73 | 1.50181 | 1446.5
318.15 K, x2 = 0.1046 | 1053.13 | 1.49001 | 1467.7
318.15 K, x2 = 0.2035 | 1076.75 | 1.47899 | 1480.3
318.15 K, x2 = 0.3042 | 1097.59 | 1.46886 | 1490.4
318.15 K, x2 = 0.406 | 1115.44 | 1.45957 | 1498.5
318.15 K, x2 = 0.4945 | 1128.96 | 1.45198 | 1503.9
318.15 K, x2 = 0.607 | 1144.25 | 1.44199 | 1509
318.15 K, x2 = 0.697 | 1155.36 | 1.43632 | 1512.5
318.15 K, x2 = 0.7828 | 1165.3 | 1.42834 | 1515.7
318.15 K, x2 = 0.9104 | 1177.29 | 1.42194 | 1518.3
323.15 K, x2 = 0 | 1017.33 | 1.49948 | 1428.1
323.15 K, x2 = 0.1046 | 1048.93 | 1.4878 | 1450.6
323.15 K, x2 = 0.2035 | 1072.68 | 1.47691 | 1464.1
323.15 K, x2 = 0.3042 | 1093.63 | 1.46692 | 1475.1
323.15 K, x2 = 0.406 | 1111.58 | 1.45773 | 1483.9
323.15 K, x2 = 0.4945 | 1125.2 | 1.45015 | 1489.9
323.15 K, x2 = 0.607 | 1140.57 | 1.44042 | 1495.7
323.15 K, x2 = 0.697 | 1151.73 | 1.43462 | 1499.8
323.15 K, x2 = 0.7828 | 1161.76 | 1.42708 | 1503.5
323.15 K, x2 = 0.9104 | 1173.77 | 1.42061 | 1506.7
